Test results as given in patent US20170143653A1, “USE OF SULINDAC FOR PROTECTING RETINAL PIGMENT EPITHELIAL CELLS AGAINST OXIDATIVE STRESS” (CHS PHARMA, INC., priority 2011, published 2017).
Entries after “also recorded” stand apart in the source; their conditions may differ.

Tests used:
Assay type in all cases: cell-based
RPE cells [1] = assay: Reversal of sulindac protection of RPE cells against UV damage by PKC/PKG inhibitors; settings: for reversal of the protective effect of sulindac against UV damage: 1200 mj UVB, rottlerin at 3 uM
Procedure: (§1) The ability of sulindac to protect RPE cells against oxidative stress was determined by analyzing cellular viability following treatment of cultured ARPE19 cells with sulindac, before exposing the cells to conditions leading to oxidative damage. Following 24 hr treatment of the cells with sulindac, ARPE19 cells were exposed to either a range of tert-Butyl Hydrogen peroxide (t-BHP) concentrations for 24 hrs or a range of intensities of ultraviolet B (UVB) to induce oxidative stress. To test the involvement of PKC, the non-specific PKC blocker chelerythrine and also specific blockers for individual isoforms of PKC were used. The possible role of PKG was investigated by the addition of PKG inhibitor Rp-8-Br-PET-CGMPs along with sulindac. Western blotting was used to detect induction of late phase markers of preconditioning.
The sulindac protective effect on RPE cells is due to ischemic preconditioning. The IPC response in tissues is often initiated by ROS and/or NO which activates mitochondrial PKC epsilon as part of a complex mechanism that also involves the opening of the mitochondrial ATP sensitive K+ channel and preventing the formation of the mitochondrial permeability transition pore. We have looked more closely at the possible role of PKC in the protection of RPE cells by sulindac, as was shown previously in cardiac studies. […] Based on previous preconditioning studies it seemed reasonable to look specifically at PKC epsilon. […] In the previous cardiac study it was also shown that two late stage preconditioning markers, iNOS and Hsp27 were induced by sulindac.
The role of PKG in the sulindac protective effect was examined. The above results support previous studies that agents that can initiate an ischemic preconditioning response may have therapeutic value in delaying the onset, or slowing the progression, of retinal diseases arising from ischemia and oxidative damage. […] Both sulindac and sildenafil are known to be inhibitors of PDE5, which results in increasing the level of cGMP and activation of PKG. […]

RPE cells [2] = assay: Protection of RPE cells against UVB radiation damage, cell viability
Procedure: as §1
It seemed reasonable to investigate whether sulindac could also protect other cells, such as RPE cells, which are susceptible to oxidative damage and known to have a strong ischemic preconditioning (IPC) response. Two types of oxidative stress were used in these experiments, either exposure of the RPE cells to an oxidizing agent such as TBHP, or exposure to UV light. In these experiments the RPE cells were pretreated for 24 hours with varying concentrations of sulindac, sulindac sulfone or sildenafil as described in the Figures. […] To determine whether this protective effect was due to the NSAID activity of sulindac, sulindac sulfone, a metabolite, of sulindac that has no NSAID activity was tested in place of sulindac for its UV protective effect. […] It should also be noted that sulindac sulfone is not a substrate for the Msr system which eliminates the possibility that the sulindac protective effect was related to its being a substrate for the Msr enzymes and functioning as a catalytic anti-oxidant in an ROS scavenging system.

ARPE-19 cells [3] = assay: Protection of ARPE-19 cells against H2O2 induced oxidative stress, cell viability; settings: incubated 24 hrs, then 50 μM H2O2
Procedure: (§2) For protecting RPE cells from oxidative stress induced damage we used the NSAID, sulindac. For our experiment we used ARPE-19 cells cultured in 96 well plates. The cells were preincubated with sulindac for 48 hours prior to exposing them to oxidative stress. Our oxidizing agents of choice were TBHP and Hydrogen peroxide (H2O2). We also stressed the ARPE-19 cells with 24 hours of Hypoxia treatment. After the stress the cellular viability was evaluated using the MTS assay. This assay uses a tetrazolium compound that is bioreduced into a formazan product in the cells. The signal generated (color intensity) is directly proportional to the number of viable (metabolically active) cells in the wells.
The next experiment was designed to determine if preincubation with sulindac is also effective in protecting ARPE-19 cells against oxidative stress induced by treatment of retina cells with H2O2. Cells were incubated with sulindac for 24 hrs and then exposed to 50 μM H2O2.

ARPE-19 cells [4] = assay: Protection of ARPE-19 cells against 24 hr hypoxic stress, cell viability; settings: 24 hours preincubation, 24 hr hypoxia
Procedure: as §2
To test the ability of sulindac; in protecting against a variety of stresses ARPE-19 cells were exposed to 24 hours of hypoxic stress following sulindac preincubation. The ARPE-19 cells were grown in 96 well plates inside a hypoxia chamber having only 5% oxygen for 24 hours to induce hypoxic stress. Prior to exposing the cells to hypoxia, one set of cells was incubated 24 hours with sulindac.

ARPE-19 cells [5] = assay: Protection of ARPE-19 cells against TBHP oxidative stress, cell viability (MTS)
Procedure: as §2
(§3) ARPE-19 cells were preincubated with different concentrations of sulindac ranging from 50 uM to 400 μM.
as §1
It seemed reasonable to investigate whether sulindac could also protect other cells, such as RPE cells, which are susceptible to oxidative damage and known to have a strong ischemic preconditioning (IPC) response. Two types of oxidative stress were used in these experiments, either exposure of the RPE cells to an oxidizing agent such as TBHP, or exposure to UV light. […]

ARPE-19 cells [6] = settings: human, 48 h
Procedure: as §2, §3

iNOS = assay: Western blot of late phase preconditioning marker iNOS in RPE cells; settings: RPE cells pretreated 48 hours
Procedure: as §1
(§4) The sulindac protective effect on RPE cells is due to ischemic preconditioning. The IPC response in tissues is often initiated by ROS and/or NO which activates mitochondrial PKC epsilon as part of a complex mechanism that also involves the opening of the mitochondrial ATP sensitive K+ channel and preventing the formation of the mitochondrial permeability transition pore. We have looked more closely at the possible role of PKC in the protection of RPE cells by sulindac, as was shown previously in cardiac studies. […]

Hsp27 = assay: Western blot of late phase preconditioning marker Hsp27 in RPE cells; settings: RPE cells pretreated 48 hours
Procedure: as §1, §4

O=c1c2nc(Br)n([C@@H]3O[C@@H]4CO[P@@](O)(=S)O[C@H]4[C@H]3O)c2nc2[nH]c(-c3ccccc3)cn12 [Rp-8-Br-PET-CGMPs]
inhibition of the sulindac protective effect on RPE cells exposed to UV damage (RPE cells [1]; 250 nM, 24 hours with sulindac): > 50%

COc1ccc2c(c[n+](C)c3c4cc5c(cc4ccc23)OCO5)c1OC [chelerythrin]
reversal of the protective effect of sulindac against UV damage (RPE cells [1]): significantly reversed

CC(=O)c1c(O)c(C)c(O)c(Cc2c(O)c3c(c(C(=O)/C=C/c4ccccc4)c2O)OC(C)(C)C=C3)c1O [rottlerin]
reversal of the protective effect of sulindac against UV damage (RPE cells [1]): no reversal

CCCc1nn(C)c2c(=O)[nH]c(-c3cc(S(=O)(=O)N4CCN(C)CC4)ccc3OCC)nc12 [sildenafil]
protection against UV damage (RPE cells [2]; 20 uM, 1200 mj UVB): can also protect RPE cells against UV damage similar to sulindac

CC1=C(CC(=O)O)c2cc(F)ccc2/C1=C\c1ccc(S(C)(=O)=O)cc1 [sulindac sulfone]
protection against H2O2 induced oxidative stress (ARPE-19 cells [3]): only partial protection | protection against hypoxia induced stress (cell viability) (ARPE-19 cells [4]): partial protection | protection against UV damage (RPE cells [2]; 200 uM, 24 hours pretreatment): complete protection

CC1=C(CC(=O)O)c2cc(F)ccc2/C1=C\c1ccc([S+](C)[O-])cc1 (centres unmarked) [sulindac]
protection against t-BHP insult, survival (ARPE-19 cells [5]; 24 hrs pretreatment, t-BHP 24 hrs): protected them against both types of insult and enhanced survival | protection against loss of cell viability due to oxidative stress by TBHP (ARPE-19 cells [5]; ARPE-19 cells preincubated with 50 uM to 400 μM sulindac, 48 hours, MTS assay): protected the ARPE-19 cells against loss of cell viability | protection against TBHP damage (cell viability) (ARPE-19 cells [5]; sulindac 125 and 200 uM, 24 hours pretreatment, varying TBHP): essentially complete protections | protection against H2O2 induced oxidative stress (ARPE-19 cells [3]): capable of protecting retina cells against H2O2 induced oxidative stress | protection against hypoxia induced stress (cell viability) (ARPE-19 cells [4]): significant protection; also recorded: higher viability | protection against UV exposure (RPE cells [2]; 500 uM, 24 hours pretreatment, 1200 mj UV): 50% | protection against UVB insult, survival (RPE cells [2]; 24 hrs pretreatment, range of UVB intensities): protected them against both types of insult and enhanced survival | sulindac concentration toxic to ARPE-19 cells (acute reduction of cell viability) (ARPE-19 cells [6]): ≥ 200 μM | induction of iNOS (iNOS): significant induction | induction of Hsp27 (Hsp27): significant induction
